Entries after “also recorded” stand apart in the source; their conditions may differ. Read-outs that look alike come from different tables or passages of the source.
How the values were obtained:
CAL33 = experiment: XTT cell viability assay, CAL33; format: cell-based; conditions: Homo sapiens, CAL-33; XTT assay (48 h); standard deviation of 10%; read-out: EC50 (μM) Head and Neck CAL33
Description: (§1) Fifty microliters of sodium 3′-[1-phenylaminocarbonyl)-3,4-tetrazolium]-bis(4-methoxy-6-nitro) benzene sulfonic acid hydrate (XTT) reagent was added to each well. The assay is based on the cleavage of the yellow tetrazolium salt XTT to form an orange formazan dye by metabolically active cells. The absorbance of the formazan product, reflecting cell viability, was measured at 490 nm. Each assay was performed in quadruplicate.
(§2) Compounds #1-#14 have been assayed as potential anti-proliferative agents against a panel of human breast head and neck, and kidney tumor cells and hematological malignancies, selected on the basis of their aggressiveness (e.g. incurable triple-negative breast cancer cells: MDA-MB-231; kidney ccRCC cells: RCC4, A498 and 786-O and 786R; head and neck cancer cells: CAL33, CAL33RR, CAL27, and CAL27RR; acute myeloid cell lines: OCI-AML2, OCI-AML3, MolM13, and MolM14; myelodysplastic cell line: SM1; and chronic myeloid cell line: CML). All these cell lines share as common denominator the expression of CXCR1 and CXCR2. The EC50 values have been measured by a XTT colorimetric assay, and compared to those of SB-225002, used as a reference; the results are listed in Table 1.

[1] = test system: VEGFA-dependent HuVEC migration; experiment: Boyden chamber migration assay, VEGFA-dependent; format: cell-based; conditions: VEGFA (50 ng/ml), same concentration
Description: (§3) CXCL7 or VEGFA-stimulated chemotaxis assays were monitored using modified Boyden chambers containing polycarbonate membranes (8-μm pores, Transwell; Corning, Sigma). Cells were seeded on the upper side of the filters and chambers were placed on 24-well plates containing CXCL7 (50 ng/ml) or VEGFA (50 ng/ml). Cells were allowed to migrate for 24 hr at 37° C. in 5% CO2. Migratory cells on the lower membrane surface were fixed in 3% paraformaldehyde, stained with 0.1% crystal violet.

[2] = test system: CXCL7-dependent HuVEC migration; experiment: Boyden chamber migration assay, CXCL7-dependent; format: cell-based; conditions: CXCL7 (50 ng/ml), 24 hr
Description: as §3

786-O and 786-R cells = experiment: FACS analysis of death markers, sunitinib-sensitive and -resistant cells; format: cell-based, human; conditions: 2.5 μM, 48 h, 786 and 786-R
Description: C: 786 and 786-R cells were treated with 2.5 μM compound #1 for 48 h. Cells were stained with the PI/annexin-V-fluo staining kit according to the manufacturer's indications. Histograms show both annexin-V^+/PI^− cells (blue bars) and annexin-V^+/PI^+ cells (red bars);
(§4) Apoptosis analysis: After stimulation, cells were washed with ice-cold PBS and were stained with the annexin-V-fluos staining kit (Roche, Meylan, France) according to the manufacturer's procedure. Fluorescence was measured by using the FL2 (AV) and FL3 (propidium iodide, PI) channels of a fluorescence-activated cell sorter apparatus (Calibur cytometer).

CXCR2 = molecular target: T1, CXCR2 (Homo sapiens, UniProt P25025); experiment: CXCR2 membrane level by flow cytometry after CXCL8 stimulation in HuVEC; format: cell-based; conditions: 2.5 μM, CXCL8 25 ng/ml 1 h
T1 construct: endogenous in cells; host or cells: HuVEC (healthy endothelial cells)
T1 sequence (P25025 whole entry): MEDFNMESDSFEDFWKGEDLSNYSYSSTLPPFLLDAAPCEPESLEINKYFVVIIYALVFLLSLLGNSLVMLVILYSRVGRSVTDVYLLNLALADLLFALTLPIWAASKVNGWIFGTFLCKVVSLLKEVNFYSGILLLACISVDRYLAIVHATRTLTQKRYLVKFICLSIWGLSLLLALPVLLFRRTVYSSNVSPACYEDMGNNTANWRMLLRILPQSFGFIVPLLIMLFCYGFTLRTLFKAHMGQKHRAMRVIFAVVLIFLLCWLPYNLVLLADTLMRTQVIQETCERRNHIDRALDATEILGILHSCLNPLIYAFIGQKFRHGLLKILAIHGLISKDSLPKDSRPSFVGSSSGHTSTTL
Description: A: HuVEC were stimulated with 25 ng/ml CXCL8 during 1 h. Membrane-associated CXCR2 protein levels were quantified by flow cytometry;
CXCR2 measurement: After stimulation, cells were washed with PBS and were stained with the CXCR2-PE antibody (Miltenyi) for 30 min at room temperature. Fluorescence was measured by using the FL2 (PE) channels of a fluorescence-activated cell sorter apparatus (Calibur cytometer).
Since CXCR2 is internalized in endothelial cells when activated by CXCL-8, the effect of compound #1 has been investigated on CXCR2 recycling on HuVEC cells.

RCC4 = experiment: XTT cell viability assay, RCC4; format: cell-based; conditions: Homo sapiens, XTT assay (48 h), standard deviation of 10%, read-out: EC50 (μM) Kidney RCC4
Description: as §1, §2

[3] = Stability in cellulo by UPLC/HRMS on 786-O cell line; format: in vitro ADME; conditions: 24h treatment at room temperature
From the text: The stability of compound #1 was first assayed through UPLC/HRMS analyses in cellulo on the 786-O cell line.

[4] = test system: malignant (ccRCC and hematological) cells; experiment: FACS analysis of cell death markers (AV, PI), malignant cells; format: cell-based, human; conditions: 5 μM, 48 h
Description: (§5) FIG. 1: Observation by FACS analyses of early (Annexin AV) and late (Propidium Iodide, PI) apoptosis markers expressed by healthy and malignant cells after treatment with compounds #1 and #2 at 5 μM. CT: negative control.
as §4
(§6) To complete these XTT assays, malignant (ccRCC and hematological) and healthy (human fibroblasts FHN) cells have been grown with compounds #1 or #2, and after 48h the expression of cell death markers (AV and PI) has been quantified by FACS analyses (FIG. 1).

[5] = test system: primary normal kidney cells (15S); experiment: XTT cell viability, primary normal kidney cells; format: cell-based, human; conditions: up to 5 μM, XTT 48 h
Description: A: Primary RCC cells (TF and CC) and normal renal cells (15S) were treated with compound #1 (1 to 5 μM) for 48 h. Cell viability was measured by XTT assays;
as §1
The biological effects of compound #1 on primary RCC tumors cells and normal renal cells harvested from patients suffering from kidney cancer have been explored (FIG. 4).

CAL27RR = experiment: XTT cell viability assay, CAL27RR (cisplatin-resistant); format: cell-based, human
Description: (§7) A, B: Naive (Cal27, A), and cisplatine-resistant (Cal27R, B) Cal27 cells, were treated with compound #1 or cisplatine (1 to 10 μM) for 48 hr. Cell viability was measured by XTT assays;
(§8) C, D: Cal27 (C), cal27R (D), were treated with 2.5 μM compound #1, 2.5 μM cisplatin for 24 h to 96 h. The metabolism of cells was measured by XTT assay.
as §1, §2

CAL27 = experiment: XTT cell viability assay, CAL27; format: cell-based, human; conditions: for EC50: XTT assay (48 h), standard deviation of 10%, read-out: EC50 (μM) Head and Neck CAL27
Description: as §7, §8, §1, §2

[6] = test system: healthy human fibroblasts (FHN); experiment: FACS analysis of cell death markers (AV, PI), healthy fibroblasts; format: cell-based; conditions: 5 μM, 48 h
Description: as §5, §4, §6

OCI-AML3 = experiment: XTT cell viability assay, OCI-AML3; format: cell-based, human; conditions: Homo sapiens, OCI-AML-3; XTT assay (48 h); standard deviation of 10%
Description: as §1, §2

O=C(Nc1cccc(Cl)c1)Nc1nc2ccc([N+](=O)[O-])cc2s1 [Compound #1, 1-(3-chlorophenyl)-3-(6-nitrobenzo[d]thiazol-2-yl)urea]
EC50 (CAL33): 2 µM | activity on VEGFA-stimulated HuVEC motility [1]: does not exert any visible activity | decrease of HuVECs motility [2]: more than 50% | death markers (annexin-V/PI) in sensitive and resistant cells (786-O and 786-R cells): kills in a similar way sensitive and resistant | CXCL-8-dependent internalization of CXCR2 (CXCR2): prevents the CXCL-8-dependent internalization of CXCR2 | EC50 (RCC4): 5 µM | degradation (stability in cellulo) [3]: No degradation | early (AV) and late (PI) apoptosis markers on malignant cells [4]: cytotoxic effect on malignant cells; also recorded: more efficient than compound #2 | effect on primary normal kidney cells (15S) [5]: no effect | time of treatment to total inhibition of proliferation (CAL27RR; Cal27R cells, 2.5 μM, XTT 24 h to 96 h): approximately 70 hours | EC50 (CAL27RR; Homo sapiens, light or radiation study, XTT assay (48 h), resistant to irradiation and cisplatin, standard deviation of 10%, read-out: EC50 (μM) Head and Neck CAL27RR): 2 µM | time of treatment to total inhibition of proliferation (CAL27; Cal27 cells, 2.5 μM, XTT 24 h to 96 h): approximately 70 hours | EC50 (CAL27; Homo sapiens, CAL-27, 48 h): 2 µM | EC50 (CAL27): 3 µM | apoptosis of healthy human fibroblasts (FHN) [6]: no increased apoptosis over the control experiment | EC50 (OCI-AML3): 4 µM
